From ChEMBL document CHEMBL1201862, “PubChem BioAssay data set” (2004)
Active and inactive are the calls of the source.

What was measured:
[1] = biological target: T1, Alkaline phosphatase, tissue-nonspecific isozyme (Homo sapiens, UniProt P05186); experiment: TNAP enzyme activators, dose response, selectivity assay for mouse IAP activator project, biochemical, TNAP isozyme, mouse IAP uHTS hits (AID 488880); type: functional
T1 sequence (P05186 whole entry): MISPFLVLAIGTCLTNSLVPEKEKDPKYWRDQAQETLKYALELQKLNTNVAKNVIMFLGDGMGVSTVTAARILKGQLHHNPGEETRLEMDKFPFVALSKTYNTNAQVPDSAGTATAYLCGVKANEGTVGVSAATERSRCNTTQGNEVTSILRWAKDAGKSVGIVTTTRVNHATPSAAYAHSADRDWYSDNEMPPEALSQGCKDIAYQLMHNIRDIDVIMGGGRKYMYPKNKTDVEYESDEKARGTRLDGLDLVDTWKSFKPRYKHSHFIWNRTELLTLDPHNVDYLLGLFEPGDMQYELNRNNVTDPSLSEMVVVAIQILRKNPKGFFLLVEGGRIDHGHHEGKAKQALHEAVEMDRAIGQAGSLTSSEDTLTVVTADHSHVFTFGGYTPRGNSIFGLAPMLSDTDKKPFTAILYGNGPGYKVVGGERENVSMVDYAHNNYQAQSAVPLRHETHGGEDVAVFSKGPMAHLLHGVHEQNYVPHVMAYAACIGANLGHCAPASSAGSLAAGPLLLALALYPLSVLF

[2] = C. albicans growth with fluconazole, confirmation, fluorescence, retest (AID 2467); type: functional, cell-based
[3] = biological target: Intestinal-type alkaline phosphatase (Mus musculus, UniProt P24822); experiment: mouse intestinal alkaline phosphatase activators, dose response, biochemical, luminescence, uHTS hits (AID 488783); type: functional
Sequence of Intestinal-type alkaline phosphatase (Mus musculus, UniProt P24822) (P24822 whole entry): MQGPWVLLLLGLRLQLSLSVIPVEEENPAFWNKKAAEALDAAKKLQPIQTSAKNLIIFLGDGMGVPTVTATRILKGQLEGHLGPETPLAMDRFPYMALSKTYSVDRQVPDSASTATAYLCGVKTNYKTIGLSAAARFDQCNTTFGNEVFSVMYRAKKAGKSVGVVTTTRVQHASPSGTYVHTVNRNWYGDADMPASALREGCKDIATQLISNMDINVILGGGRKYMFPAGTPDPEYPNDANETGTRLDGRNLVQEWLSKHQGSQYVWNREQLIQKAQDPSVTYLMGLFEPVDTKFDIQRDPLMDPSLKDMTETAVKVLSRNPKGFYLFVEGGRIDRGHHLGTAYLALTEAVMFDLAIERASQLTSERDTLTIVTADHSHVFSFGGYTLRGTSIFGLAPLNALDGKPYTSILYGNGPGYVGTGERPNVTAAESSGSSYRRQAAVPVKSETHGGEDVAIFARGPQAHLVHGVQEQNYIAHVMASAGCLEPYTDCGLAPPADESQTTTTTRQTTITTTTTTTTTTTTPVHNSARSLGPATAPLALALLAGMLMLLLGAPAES

Caspase-6 = biological target: T2, Caspase-6 (Homo sapiens, UniProt P55212); experiment: human caspase-6 inhibitors, dose response, biochemical, VEID-R110 fluorescence, cherry-pick (AID 720632)
T2 sequence (P55212 whole entry): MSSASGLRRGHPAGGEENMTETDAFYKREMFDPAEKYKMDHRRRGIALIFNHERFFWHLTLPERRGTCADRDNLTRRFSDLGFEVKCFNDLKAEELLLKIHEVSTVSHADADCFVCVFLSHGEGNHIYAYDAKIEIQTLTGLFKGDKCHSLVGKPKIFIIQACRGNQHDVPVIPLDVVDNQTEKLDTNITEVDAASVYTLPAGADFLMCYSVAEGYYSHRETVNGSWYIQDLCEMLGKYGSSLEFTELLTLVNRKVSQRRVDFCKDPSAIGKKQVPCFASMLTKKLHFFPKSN

[4] = biological target: T3, Histone-lysine N-methyltransferase NSD2 (Homo sapiens, UniProt O96028); type: biochemical
T3 sequence (O96028 whole entry): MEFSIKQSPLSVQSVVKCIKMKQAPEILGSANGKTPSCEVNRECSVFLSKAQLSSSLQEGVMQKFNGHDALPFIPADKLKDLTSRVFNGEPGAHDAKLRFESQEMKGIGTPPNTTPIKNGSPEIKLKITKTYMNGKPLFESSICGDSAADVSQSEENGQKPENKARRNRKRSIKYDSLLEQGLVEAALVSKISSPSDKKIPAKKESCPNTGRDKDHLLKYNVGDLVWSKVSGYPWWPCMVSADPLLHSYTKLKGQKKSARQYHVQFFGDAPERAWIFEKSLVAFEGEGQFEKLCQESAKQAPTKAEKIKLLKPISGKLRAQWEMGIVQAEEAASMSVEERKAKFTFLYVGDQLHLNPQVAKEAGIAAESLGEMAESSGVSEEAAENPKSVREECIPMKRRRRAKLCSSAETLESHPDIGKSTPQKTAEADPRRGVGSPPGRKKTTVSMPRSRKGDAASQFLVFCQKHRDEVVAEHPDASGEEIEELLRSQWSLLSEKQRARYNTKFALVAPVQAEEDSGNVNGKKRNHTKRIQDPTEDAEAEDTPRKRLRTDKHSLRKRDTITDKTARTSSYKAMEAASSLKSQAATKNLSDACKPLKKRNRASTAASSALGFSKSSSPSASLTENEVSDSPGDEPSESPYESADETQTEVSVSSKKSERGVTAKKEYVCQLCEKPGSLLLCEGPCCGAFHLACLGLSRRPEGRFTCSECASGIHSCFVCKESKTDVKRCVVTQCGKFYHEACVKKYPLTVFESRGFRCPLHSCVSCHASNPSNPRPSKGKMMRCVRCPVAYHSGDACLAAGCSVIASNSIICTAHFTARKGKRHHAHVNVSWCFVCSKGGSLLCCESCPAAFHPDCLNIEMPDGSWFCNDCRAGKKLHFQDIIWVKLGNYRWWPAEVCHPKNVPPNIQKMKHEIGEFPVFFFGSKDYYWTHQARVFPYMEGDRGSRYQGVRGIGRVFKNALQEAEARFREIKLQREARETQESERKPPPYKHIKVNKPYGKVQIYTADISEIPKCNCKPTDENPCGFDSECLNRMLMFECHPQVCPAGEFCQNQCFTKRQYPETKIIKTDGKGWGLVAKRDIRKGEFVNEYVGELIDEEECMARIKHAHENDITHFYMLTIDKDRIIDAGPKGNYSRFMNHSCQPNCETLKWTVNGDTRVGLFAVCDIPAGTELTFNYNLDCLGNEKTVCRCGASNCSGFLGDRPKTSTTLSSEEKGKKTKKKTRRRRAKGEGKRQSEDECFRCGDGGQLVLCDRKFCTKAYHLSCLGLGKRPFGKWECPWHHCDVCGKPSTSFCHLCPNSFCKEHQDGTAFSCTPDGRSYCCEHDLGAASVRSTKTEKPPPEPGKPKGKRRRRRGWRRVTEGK

[5] = NIH-3T3 fibroblast cytotoxicity, dose response, cytotoxicity control, cell-based, fluorescence, Alamar Blue, secondary assay (AID 2327); type: functional;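 note: NIH-3T3 mouse fibroblasts cultured with fluconazole at 8 µg/mL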
[6] = biological target: Intestinal-type alkaline phosphatase (Homo sapiens, UniProt P09923); experiment: activation of human intestinal alkaline phosphatase – biochemical, dose response (AID 488873); type: functional
Sequence of Intestinal-type alkaline phosphatase (Homo sapiens, UniProt P09923) (P09923 whole entry): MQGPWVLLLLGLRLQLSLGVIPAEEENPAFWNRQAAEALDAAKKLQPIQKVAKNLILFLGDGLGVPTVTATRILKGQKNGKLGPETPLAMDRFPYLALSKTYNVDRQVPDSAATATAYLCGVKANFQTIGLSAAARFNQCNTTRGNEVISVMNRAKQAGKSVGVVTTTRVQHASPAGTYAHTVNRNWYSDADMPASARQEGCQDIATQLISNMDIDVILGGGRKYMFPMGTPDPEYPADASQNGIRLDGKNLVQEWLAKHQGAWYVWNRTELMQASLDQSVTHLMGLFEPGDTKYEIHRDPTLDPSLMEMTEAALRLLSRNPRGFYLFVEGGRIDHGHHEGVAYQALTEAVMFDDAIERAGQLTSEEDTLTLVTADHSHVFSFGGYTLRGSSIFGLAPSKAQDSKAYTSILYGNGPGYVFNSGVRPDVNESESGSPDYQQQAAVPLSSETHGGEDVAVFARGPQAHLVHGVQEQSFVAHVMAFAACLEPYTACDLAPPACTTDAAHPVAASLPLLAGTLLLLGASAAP

Cytochrome P450 2D6 = Cytochrome P450 2D6 (Homo sapiens, UniProt P10635);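 note: CYP2D6 member of a cytochrome P450 panel assay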
Sequence of Cytochrome P450 2D6 (P10635 whole entry): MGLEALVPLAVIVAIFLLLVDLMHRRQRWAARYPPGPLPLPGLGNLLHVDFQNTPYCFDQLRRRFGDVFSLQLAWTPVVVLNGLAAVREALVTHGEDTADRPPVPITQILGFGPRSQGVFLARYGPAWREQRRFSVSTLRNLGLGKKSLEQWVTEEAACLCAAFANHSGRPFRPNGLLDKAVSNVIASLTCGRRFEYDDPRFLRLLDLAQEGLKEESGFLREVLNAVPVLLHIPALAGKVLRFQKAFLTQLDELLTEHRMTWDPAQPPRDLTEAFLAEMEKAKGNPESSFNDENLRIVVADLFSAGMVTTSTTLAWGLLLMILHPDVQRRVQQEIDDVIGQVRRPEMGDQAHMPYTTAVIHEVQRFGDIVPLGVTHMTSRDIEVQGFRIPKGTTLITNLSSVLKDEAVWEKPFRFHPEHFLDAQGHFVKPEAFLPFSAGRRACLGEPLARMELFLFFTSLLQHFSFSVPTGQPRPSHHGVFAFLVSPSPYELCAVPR

Cytochrome P450 2C19 = Cytochrome P450 2C19 (Homo sapiens, UniProt P33261); experiment: Cytochrome panel assay with activity outcomes. Panel member name: p450-cyp2c19 Compounds with AC50 equal or less than 10 uM are considered active; type: functional
Sequence of Cytochrome P450 2C19 (P33261 whole entry): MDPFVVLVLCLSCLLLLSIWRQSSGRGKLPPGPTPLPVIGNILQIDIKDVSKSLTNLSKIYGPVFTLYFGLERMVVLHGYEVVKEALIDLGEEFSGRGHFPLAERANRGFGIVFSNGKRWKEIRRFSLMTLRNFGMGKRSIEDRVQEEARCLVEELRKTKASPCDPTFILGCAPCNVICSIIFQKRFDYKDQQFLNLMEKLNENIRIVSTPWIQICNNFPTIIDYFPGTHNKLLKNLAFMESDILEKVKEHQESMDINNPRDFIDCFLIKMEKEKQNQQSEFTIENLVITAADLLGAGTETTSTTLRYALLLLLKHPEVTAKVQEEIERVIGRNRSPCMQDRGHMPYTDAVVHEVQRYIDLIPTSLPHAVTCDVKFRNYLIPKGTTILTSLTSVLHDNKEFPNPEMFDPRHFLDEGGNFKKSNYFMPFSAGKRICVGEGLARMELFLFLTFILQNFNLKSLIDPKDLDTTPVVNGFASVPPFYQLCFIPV

[7] = biological target: T4, Tyrosine-protein phosphatase non-receptor type 22 (Homo sapiens, UniProt Q9Y2R2); type: functional
T4 sequence (Q9Y2R2 whole entry): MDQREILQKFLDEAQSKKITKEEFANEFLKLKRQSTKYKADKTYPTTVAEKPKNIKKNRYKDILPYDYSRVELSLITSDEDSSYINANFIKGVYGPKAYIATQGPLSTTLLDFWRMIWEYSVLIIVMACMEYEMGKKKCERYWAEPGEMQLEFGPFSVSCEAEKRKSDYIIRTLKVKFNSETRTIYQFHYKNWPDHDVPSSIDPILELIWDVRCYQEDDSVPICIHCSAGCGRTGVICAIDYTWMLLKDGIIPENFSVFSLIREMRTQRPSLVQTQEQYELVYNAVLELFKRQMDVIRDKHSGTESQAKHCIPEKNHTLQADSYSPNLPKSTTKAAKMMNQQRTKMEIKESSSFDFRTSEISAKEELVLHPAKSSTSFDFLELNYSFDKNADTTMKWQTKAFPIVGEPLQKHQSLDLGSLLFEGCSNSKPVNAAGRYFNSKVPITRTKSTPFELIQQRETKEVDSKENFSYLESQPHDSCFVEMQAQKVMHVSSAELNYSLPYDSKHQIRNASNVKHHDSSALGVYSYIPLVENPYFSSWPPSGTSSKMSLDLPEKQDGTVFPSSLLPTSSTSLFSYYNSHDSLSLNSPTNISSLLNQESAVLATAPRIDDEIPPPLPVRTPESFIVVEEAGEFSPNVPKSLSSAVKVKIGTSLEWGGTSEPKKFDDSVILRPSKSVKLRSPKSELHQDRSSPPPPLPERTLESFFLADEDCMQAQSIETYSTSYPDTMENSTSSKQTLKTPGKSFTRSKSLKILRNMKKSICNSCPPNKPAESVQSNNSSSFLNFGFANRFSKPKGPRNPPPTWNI

[8] = biological target: T4, Tyrosine-protein phosphatase non-receptor type 22; type: functional; remark: listed apart in the source
[9] = biological target: T5, Tyrosine-protein phosphatase non-receptor type 7 (Homo sapiens, UniProt P35236); type: functional
T5 sequence (P35236 whole entry): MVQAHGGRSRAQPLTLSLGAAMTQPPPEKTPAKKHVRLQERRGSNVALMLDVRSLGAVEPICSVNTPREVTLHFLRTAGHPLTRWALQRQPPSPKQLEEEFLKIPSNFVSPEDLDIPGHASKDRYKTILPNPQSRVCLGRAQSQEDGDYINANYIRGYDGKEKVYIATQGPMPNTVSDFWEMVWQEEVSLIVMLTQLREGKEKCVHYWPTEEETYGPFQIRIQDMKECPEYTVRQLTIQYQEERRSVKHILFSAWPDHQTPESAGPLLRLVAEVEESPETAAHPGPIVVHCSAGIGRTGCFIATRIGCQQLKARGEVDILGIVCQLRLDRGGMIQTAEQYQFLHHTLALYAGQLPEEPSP

[10] = tested on: Streptococcus sp. 'group A'; experiment: growth inhibition of control SK(-) GAS strain, dose response, counter-screen for streptokinase expression inhibitor project, luminescence, kanamycin, BacTiterGlo, confirmation (AID 1900); type: functional, organism-based
cells = type: functional
[11] = THP-1 cell cytotoxicity, dose response, cytotoxicity control for non-replicating M. tuberculosis project (AID 489025); type: functional
Streptococcus = experiment: Group A Streptococcus viability loss, dose response, counter-screen for streptokinase expression inhibitor project, luminescence, BacTiterGlo (AID 1915); type: functional, organism-based;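 note: potency for reduction of bacterial viability or growth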
[12] = biological target: T6, Short transient receptor potential channel 4 (Mus musculus, UniProt Q9QUQ5); experiment: mouse TRPC4 channel activators, dose response, cell-based, HEK293 TRPC4/mu-opioid, Fluo-4 calcium (AID 434937); type: functional
T6 sequence (Q9QUQ5 whole entry): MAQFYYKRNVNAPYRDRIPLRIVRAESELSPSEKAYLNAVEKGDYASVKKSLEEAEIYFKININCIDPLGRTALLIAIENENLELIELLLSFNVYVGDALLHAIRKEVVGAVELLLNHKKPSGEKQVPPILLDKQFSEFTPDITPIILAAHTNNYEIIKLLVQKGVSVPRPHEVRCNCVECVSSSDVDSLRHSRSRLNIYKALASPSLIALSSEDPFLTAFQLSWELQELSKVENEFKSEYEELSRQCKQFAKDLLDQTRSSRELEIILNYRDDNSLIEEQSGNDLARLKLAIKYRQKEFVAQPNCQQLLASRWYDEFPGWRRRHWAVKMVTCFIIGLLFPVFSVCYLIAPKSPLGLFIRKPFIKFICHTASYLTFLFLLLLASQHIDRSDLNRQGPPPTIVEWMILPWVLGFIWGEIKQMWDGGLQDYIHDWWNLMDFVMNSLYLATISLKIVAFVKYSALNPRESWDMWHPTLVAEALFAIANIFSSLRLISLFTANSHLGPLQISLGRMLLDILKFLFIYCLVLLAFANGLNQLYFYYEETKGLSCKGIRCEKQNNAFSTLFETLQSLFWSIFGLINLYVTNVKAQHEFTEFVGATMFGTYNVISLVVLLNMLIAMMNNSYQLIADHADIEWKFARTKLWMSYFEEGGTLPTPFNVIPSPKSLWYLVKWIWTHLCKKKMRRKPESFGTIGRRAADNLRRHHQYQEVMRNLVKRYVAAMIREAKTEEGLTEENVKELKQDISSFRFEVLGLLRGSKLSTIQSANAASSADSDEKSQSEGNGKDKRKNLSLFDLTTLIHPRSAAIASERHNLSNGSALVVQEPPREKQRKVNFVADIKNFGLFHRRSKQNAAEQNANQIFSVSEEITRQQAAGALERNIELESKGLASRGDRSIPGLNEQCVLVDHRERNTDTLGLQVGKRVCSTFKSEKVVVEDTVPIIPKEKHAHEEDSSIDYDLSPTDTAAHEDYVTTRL

[13] = Vero E6 cell cytotoxicity, dose response, cytotoxicity control for non-replicating M. tuberculosis project, secondary assay (AID 492998); type: functional, VeroE6; settings: Vero C1008

**Q.** Which EC50 [1] does the source give for `NNC(=O)c1cc(O)c(O)c(O)c1` here?
**A.** Its EC50 is 69.3 µM (active).

**Q.** And the EC50 [2]?
**A.** The EC50 was > 38 µM (not active).

**Q.** What about the EC50 [3] of the same compound?
**A.** The EC50 was 8.04 µM (active).

**Q.** And the AC50 (Caspase-6)?
**A.** Its AC50 is 2.43 µM (active).

**Q.** And the AC50 [4]?
**A.** Its AC50 is 5.41 µM (active).

**Q.** What about the EC50 [5] of the same compound?
**A.** The EC50 was 41.7 µM (active).

**Q.** And the EC50 [6]?
**A.** Its EC50 is 82.6 µM (active).

**Q.** With `O=C(O)c1cc(/N=N\c2ccc([As](=O)(O)O)cc2)ccc1O` as the compound, how does the AC50 (Cytochrome P450 2D6) read?
**A.** Its AC50 is “inconclusive”.

**Q.** And the AC50 (Cytochrome P450 2C19)?
**A.** Its AC50 is “inconclusive”.

**Q.** Which IC50 [7] does the source give for `Cc1ccc(OCC(=O)N/N=C\c2ccco2)c(C)c1` here?
**A.** The IC50 was > 79.4 µM (inactive).

**Q.** What about the IC50 [8] of the same compound?
**A.** The IC50 was > 79.4 µM (inactive).

**Q.** What about the IC50 [9] of the same compound?
**A.** The IC50 was > 79.4 µM (inactive).

**Q.** With `CC(=O)Nc1ccc(SCC(=O)Nc2ccc(Cl)cn2)cc1` as the compound, how does the IC50 [7] read?
**A.** The IC50 was > 79.4 µM (inactive).

**Q.** And the IC50 [8]?
**A.** Its IC50 is > 79.4 µM (inactive).

**Q.** What about the IC50 [9] of the same compound?
**A.** The IC50 was > 79.4 µM (inactive).

**Q.** For `Cc1ccc(C(=O)NNC(=S)NC(=O)c2ccc(Cl)cc2)cc1`, which EC50 [10] is on record?
**A.** Its EC50 is 0.182 µM (active).

**Q.** What about the AC50 (Cytochrome P450 2D6) of the same compound?
**A.** Its AC50 is “inconclusive”.

**Q.** And the IC50 (cells)?
**A.** Its IC50 is < 0.1 µM (active).

**Q.** And the CC50 [11]?
**A.** The CC50 was 22.9 µM (active).

**Q.** What about the EC50 (Streptococcus) of the same compound?
**A.** The EC50 was 3.71 µM (active).

**Q.** What about the AC50 (Cytochrome P450 2C19; read-out: AC50) of the same compound?
**A.** The AC50 was 35.5 µM (inconclusive).

**Q.** And the EC50 [12]?
**A.** Its EC50 is 2.11 µM (active).

**Q.** What about the CC50 [13] of the same compound?
**A.** The CC50 was 17 µM (active).
